Data reported in patent publication US20140107054A1, “Method of treating clostridium difficile-associated diarrhea” (priority 2006, published 2014).
Converted amounts (≈) assume the structure as drawn. “And” between values parts separate entries of the source, which are not always exact repeats. Identical values can stand only once.

Key:
[1] = Fold increase in MIC relative to tiacumicin B (API mixture profile table); assay type: cell-based
[2] = tested on: C. difficile ATCC 700057; experiment: MIC, CLSI agar dilution; assay type: cell-based, Clostridium difficile
Text: (§1) Laboratory strains of Clostridium difficile 9689, 700057, 43255, 17857 and Eubacterium lentum 43055 were obtained from American Type Culture Collection (ATCC). […] Broth dilution is not a validated method for MIC testing of Clostridium; however, due to potential inaccuracy of measuring the pH of solid agar after equilibration inside the anaerobic chamber, both methods were used and compared for the assessment of pH effects. […] Even with strong buffering, the pH shifted slightly following equilibration in the anaerobic gas, and thus in some cases media was titered in ambient air to above the desired anaerobic pH. The actual pH was always confirmed following equilibration inside the anaerobic chamber. […] The level of divalent cations in the Brucella broth as acquired from the manufacturer were determined by the Laboratory Specialists, Inc.

[3] = tested on: C. difficile ATCC 9689; experiment: MIC, CLSI agar dilution; assay type: cell-based, Clostridium difficile; settings: for MIC: Clostridioides difficile, different lots of media
Text: as §1

[4] = tested on: C. difficile ATCC 9689; experiment: MIC, broth microdilution (pH effect); assay type: cell-based, Clostridium difficile; settings: in µg/mL
[5] = tested on: C. difficile ATCC 700057; experiment: MIC, broth microdilution (pH effect); assay type: cell-based, Clostridium difficile; settings: in µg/mL
[6] = tested on: C. difficile strains; experiment: MIC, agar dilution, statements for C. difficile strains together; assay type: cell-based, Clostridium difficile
Text: as §1

[7] = tested on: C. difficile strains; experiment: MIC, broth microdilution, statements for both C. difficile strains; assay type: cell-based, Clostridium difficile; settings: all three experiments
[8] = tested on: C. difficile; experiment: Quantitative stool cultures of Phase 2A patients, C. difficile counts; assay type: in vivo, human; settings: all patients except one receiving 50 mg; 50, 100 or 200 mg twice daily for 10 days (vancomycin 125 mg qid)
[9] = tested on: Bacteroides group; experiment: Quantitative stool cultures of Phase 2A patients, Bacteroides group counts; assay type: in vivo, human
[10] = tested on: C. difficile (17857); experiment: MIC, CLSI agar dilution, different lots of media; assay type: cell-based, Clostridium difficile; settings: Clostridioides difficile
Text: (§2) Laboratory strains of Clostridium difficile 9689, 700057, 43255, 17857 and Eubacterium lentum 43055 were obtained from American Type Culture Collection (ATCC). […] Broth dilution is not a validated method for MIC testing of Clostridium; however, due to potential inaccuracy of measuring the pH of solid agar after equilibration inside the anaerobic chamber, both methods were used and compared for the assessment of pH effects.

[11] = tested on: C. difficile (43255); experiment: MIC, CLSI agar dilution, different lots of media; assay type: cell-based, Clostridium difficile; settings: for MIC: Clostridioides difficile
Text: as §2

[12] = tested on: Eubacterium lentum (43055); experiment: MIC, CLSI agar dilution, different lots of media (QC organism); assay type: cell-based; settings: Eggerthella lenta
Text: as §2

[13] = anaerobic pH 7, 100 mM NaH2PO4, pH 7.2 (Air)
[14] = anaerobic pH 6.7, 10 mM NaH2PO4 pH 7.0 (air)
[15] = anaerobic pH 6.8, 100 mM NaH2PO4 pH 7.0 (Air)
[16] = anaerobic pH 7.2, 10 mM MOPS pH 8.0 (Air)
[17] = anaerobic pH 7.5, 100 mM MOPS pH 8.0 (Air)
[18] = anaerobic pH 7.6, 10 mM TAPS pH 9.0 (Air)
[19] = anaerobic pH 8, 100 mM TAPS pH 9.0 (Air)
[20] = anaerobic pH 8.1, 100 mM TAPS pH 9.5 (Air)
[21] = strongly buffered series, anaerobic pH 6, pH 6.0 (Air)
[22] = unbuffered media, anaerobic pH 5.9
[23] = unbuffered media, anaerobic pH 6.6
[24] = unbuffered media, anaerobic pH 7.1
[25] = unbuffered media, anaerobic pH 7.5
[26] = weakly buffered series, anaerobic pH 6, pH 6.0 (Air)

## CCC1/C=C(\C)C(O)C/C=C/C=C(\COC2OC(C)C(OC(=O)c3c(C)c(Cl)c(O)c(Cl)c3O)C(O)C2OC)C(=O)CC(C(C)O)C/C=C(C)/C=C(\C)C1OC1OC(C)(C)C(OC(=O)C(C)C)C(O)C1O (centres unmarked) [OP-1405, lipiarmycin A4]
[1]
  fold increased in MIC relative to tiacumicn B: 1-4x

## CCc1c(Cl)c(O)c(Cl)c(O)c1C(=O)OC1C(C)OC(OC/C2=C\C=C\CC(O)/C(C)=C/C(CC)C(OC3OC(C)(C)C(OC(=O)C(C)C)C(O)C3O)/C(C)=C/C(C)=C/CC(C(C)=O)OC2=O)C(OC)C1O (centres unmarked) [OP-1402]
[1]
  fold increased in MIC relative to tiacumicn B: 2-4x

## CCC(=O)OC1C(O)C(O)C(OC2/C(C)=C/C(C)=C/CC(C(C)O)OC(=O)/C(COC3OC(C)C(OC(=O)c4c(O)c(Cl)c(O)c(Cl)c4CC)C(O)C3OC)=C/C=C/CC(O)/C(C)=C/C2CC)OC1(C)C (centres unmarked) [OP-1417]
[1]
  fold increased in MIC relative to tiacumicn B: 2-4x

## CCc1c(Cl)c(O)c(Cl)c(O)c1C(=O)OC1C(C)OC(OC/C2=C\C=C\CC(O)/C(C)=C/C(CC)C(OC3OC(C)(C)C(OC(C)=O)C(O)C3O)/C(C)=C/C(C)=C/CC(C(C)O)OC2=O)C(OC)C1O (centres unmarked) [OP-1416]
[1]
  fold increased in MIC relative to tiacumicn B: 2-4x

## CCC1CC=C(C)C=C(C)C(OC2OC(C)(C)C(OC(C)=O)C(O)C2O)C(CC)C=C(C)C(O)CC=CC=C(C)C(=O)O1 (centres unmarked) [OP-1434, tiacumicin A]
[1]
  fold increased in MIC relative to tiacumicn B: >32x

## CN[C@H](CC(C)C)C(=O)N[C@H]1C(=O)N[C@@H](CC(N)=O)C(=O)N[C@H]2C(=O)N[C@H]3C(=O)N[C@H](C(=O)N[C@H](C(=O)O)c4cc(O)cc(O)c4-c4cc3ccc4O)[C@H](O)c3ccc(c(Cl)c3)Oc3cc2cc(c3O[C@@H]2O[C@H](CO)[C@@H](O)[C@H](O)[C@H]2O[C@H]2C[C@](C)(N)[C@H](O)[C@H](C)O2)Oc2ccc(cc2Cl)[C@H]1O [Vancomycin, vancomycin]
[2]; agar dilution, inoculum density 1.48 × 10^8 cfu/ml, 1.48 × 10^5
  In vitro activity (MIC): 2 µg/mL
[2]; [13]
  agar dilution MIC: 4
[2]; pH 6.7, unbuffered column
  agar dilution MIC: 2 (pH 6.7)
[3]; [13]
  agar dilution MIC: 4
[3]; pH 6.7, unbuffered column
  agar dilution MIC: 1 (pH 6.7)
[4]; [14]
  MIC: 1
[4]; [15]
  MIC: 1 and 2
[4]; [16]
  MIC: 2
[4]; [17]
  MIC: 4
[4]; [18]
  MIC: 4
[4]; [19]
  MIC: >8
[4]; [20]
  MIC: >8
[4]; [21]
  MIC: 1 and 0.5
[4]; [22]
  MIC: 0.5 and 1
[4]; [23]
  MIC: 0.5 and 1
[4]; [24]
  MIC: 2
[4]; [25]
  MIC: 4
[4]; [26]
  MIC: 0.5
[5]; [14]
  MIC: 1
[5]; [15]
  MIC: 2
[5]; [16]
  MIC: 2
[5]; [17]
  MIC: 4
[5]; [18]
  MIC: 4
[5]; [19]
  MIC: 8
[5]; [20]
  MIC: 8
[5]; [21]
  MIC: 1
[5]; [22]
  MIC: 0.5
[5]; [23]
  MIC: 1
[5]; [24]
  MIC: 1 and 2
[5]; [25]
  MIC: 2 and 4
[5]; [26]
  MIC: 0.5
[6]; 10^5-10^8 cfu/ml (10^2-10^5 CFU/spot), ATCC 9689 and ATCC 700057, highest over lowest inoculum density
  Effect of inoculum density on MIC: fourfold increase in MIC
[7]
  MIC at highest pH treatment relative to lowest pH treatment: 4-8 fold
[8]
  C. difficile quantitative counts at day 10: similarly effective
[9]; 125 mg qid for 10 days
  Effect on Bacteroides counts during therapy: severely impairs Bacteroides counts
[9]; Day 0, 125 mg qid (n = 7)
  Bacteroides group counts/gm feces wet weight, mean ± SD: 7.39 ± 2.67 log10 CFU

## CCc1c(Cl)c(O)c(Cl)c(O)c1C(=O)OC1C(C)OC(OC/C2=C/C=C/CC(O)/C(C)=C/C(CC)C(OC3OC(C)(C)C(O)C(O)C3OC(=O)C(C)C)/C(C)=C/C(C)=C/CC(C(C)O)OC2=O)C(OC)C1O (centres unmarked) [OP-1432, tiacumicin C]
[1]
  fold increased in MIC relative to tiacumicn B: 8-16x

## CCc1c(Cl)c(O)c(Cl)c(O)c1C(=O)OC1C(C)OC(OC/C2=C\C=C\CC(O)/C(C)=C/C(CC)C(OC3OC(C)(C)C(OC(=O)CC(C)C)C(O)C3O)/C(C)=C/C(C)=C/CC(C(C)O)OC2=O)C(OC)C1O (centres unmarked) [OP-1437]
[1]
  fold increased in MIC relative to tiacumicn B: 2x

## CCC[C@@H]1C[C@@H](C(=O)N[C@@H]([C@H]2O[C@H](SC)[C@H](O)[C@@H](O)[C@H]2O)[C@H](C)Cl)N(C)C1 [Clindamycin, clindamycin]
[3]; ATCC9689, 24 h, Day 1
  MIC: 4 µg/mL (≈ 9.41 µM)
[3]; ATCC9689, 48 h, Day 2
  MIC: 4 µg/mL (≈ 9.41 µM)
[3]; ATCC9689, 72 h, Day 3
  MIC: 4 µg/mL (≈ 9.41 µM)
[10]; 24 h, Day 1
  MIC: 4 µg/mL (≈ 9.41 µM)
[10]; 48 h, Day 2
  MIC: 2 µg/mL (≈ 4.71 µM)
[10]; 72 h, Day 3
  MIC: 4 µg/mL (≈ 9.41 µM)
[11]; 24 h, Day 1
  MIC: 8 µg/mL (≈ 18.8 µM)
[11]; 48 h, Day 2
  MIC: 4 µg/mL (≈ 9.41 µM)
[11]; 72 h, Day 3
  MIC: 8 µg/mL (≈ 18.8 µM)
[11]; Day 2
  MIC values: 8 µg/mL (≈ 18.8 µM)
[12]; 24 h, Day 1
  MIC: 0.25 µg/mL (≈ 0.588 µM)
[12]; 48 h, Day 2
  MIC: 0.25 µg/mL (≈ 0.588 µM)
[12]; 72 h, Day 3
  MIC: 0.125 µg/mL (≈ 0.294 µM)

## Cc1ncc([N+](=O)[O-])n1CCO [Metronidazole, metronidazole]
[12]; 24 h, Day 1
  MIC: 1 µg/mL (≈ 5.84 µM)
[12]; 48 h, Day 2
  MIC: 0.25 µg/mL (≈ 1.46 µM)
[12]; 72 h, Day 3
  MIC: 1 µg/mL (≈ 5.84 µM)
[6]; control vs. C. difficile strains
  MIC values range in our laboratory: 0.25 to 0.5 µg/mL

## CCc1c(Cl)c(O)c(Cl)c(O)c1C(=O)O[C@H]1[C@H](O)[C@H](OC)[C@H](OC/C2=C\C=C\C[C@H](O)/C(C)=C/[C@H](CC)[C@@H](O[C@@H]3OC(C)(C)[C@@H](OC(=O)C(C)C)[C@H](O)[C@@H]3O)/C(C)=C/C(C)=C/C[C@@H](C(C)O)OC2=O)O[C@@H]1C (some centres unmarked) [OP-1441, tiacumicin B]
[1]
  fold increased in MIC relative to tiacumicn B: 1x

## CCc1c(Cl)c(O)c(Cl)c(O)c1C(=O)OC1C(C)OC(OC/C2=C/C=C/CC(O)/C(C)=C/C(CC)C(OC3OC(C)(C)C(O)C(OC(=O)C(C)C)C3O)/C(C)=C/C(C)=C/CC(C(C)O)OC2=O)C(OC)C1O (centres unmarked) [OP-1431, tiacumicin F]
[1]
  fold increased in MIC relative to tiacumicn B: 8x
